Drawing on patent publication US7504508B2, “PGD2 receptor antagonists for the treatment of inflammatory diseases” (Millennium Pharmaceuticals, Inc., priority 2002, dated 2009), this text covers Ki for 24 compounds.

In this test the target is T1, cloned human CRTH2 receptor (Homo sapiens, UniProt Q9Y5Y4).
T1 construct: purchased Biosignal; host or cells: HEK-293 cells stably expressing human CRTH2 and G-alpha-16 (membranes)
T1 sequence (Q9Y5Y4 1-395): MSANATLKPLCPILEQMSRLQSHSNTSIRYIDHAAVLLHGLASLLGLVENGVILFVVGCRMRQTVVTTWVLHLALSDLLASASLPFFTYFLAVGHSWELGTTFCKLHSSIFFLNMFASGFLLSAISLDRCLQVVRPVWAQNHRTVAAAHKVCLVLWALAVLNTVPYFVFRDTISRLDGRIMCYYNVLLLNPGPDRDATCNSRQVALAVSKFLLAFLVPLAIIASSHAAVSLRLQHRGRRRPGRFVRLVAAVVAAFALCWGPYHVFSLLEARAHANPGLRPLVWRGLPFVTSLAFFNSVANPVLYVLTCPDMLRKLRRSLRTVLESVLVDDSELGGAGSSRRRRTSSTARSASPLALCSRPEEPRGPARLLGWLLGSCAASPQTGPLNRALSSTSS
The test can be described thus: Radioligand membrane binding assay: inhibition of [3H] PGD2 binding to CRTH2 (Scintillation Proximity Assay). The note with it: inhibition of [3H] PGD2 binding to membranes of HEK-293 cells stably expressing human CRTH2; SPA; 10 point curve from 10 μM; room temperature, approximately 2 hours. The protocol:
This radioligand membrane binding assay evaluates the ability of compounds to inhibit [^3H] Prostaglandin D2 (PGD2) binding to the cloned human CRTH2 receptor stably expressed in HEK-293 cells (expressing human CRTh2 receptor and α subunit or the heteronimeric G protein 16 were prepared by Biosignal Company) using Scintillation Proximity Assay.
A binding buffer containing 50 mM Tris-HCl (pH 7.5), 5 mM MgCl2 and 1 mM EDTA was prepared immediately prior to performing the assay. A bead/membrane solution at twice the final assay concentration comprising membranes (membranes bought from Biosignal) from the HEK-293 cells cloned to express CRTH2 receptor bound to and [3H] PGD2 at twotimes the final assay concentration were prepared and stored on ice before adding to wells. Cold PGD2 at twenty times the final assay concentration was prepared and stored on ice before adding to wells defining non-specific binding (NSB) corning plates #3653 were used for this assay.
10 mM stock concentrations of compounds in 100% DMSO were prepared and stored at room temperature. A 10 point concentration response curve was then constructed for each compound, starting at 10 μM (final assay concentration). The compounds were prepared at 40 times final assay concentrations with nine consequent-3-fold dilutions.
0.1 μl of each concentration of compound were added to the appropriate well of the 384 plate and 2 μl of cold PGD2 was added into the wells defining NSB. 20 μl of [^3H] PGD2 and then 20 μl of 2× of bead/membrane solution were then added to each well.
The plates were allowed to incubate at room temperature for approximately 2 hours and then counted on Packard Topcount using SPA tritium protocol for 1 minute/well.
The percent inhibition of PGD2 binding (PGD2 used at the KD value or lower) to the HEK-293 cell membranes was determined, the assay was always run as duplicate for n=1 for a total of n=2.
For orientation: Ki means a dissociation constant, usually derived from enzyme kinetics or from competition with a known ligand. Lower therefore signals higher affinity. Turning to `CCC(=O)N(c1ccccc1)[C@H]1C[C@@H](C)N(C(=O)c2ccc(N3CCOCC3)cc2)c2ccccc21` [Compound A-120, (2R,4S)-cis-N-[2-methyl-1-(4-morpholin-4-yl-benzoyl)-1,2,3,4-tetrahydro-quinolin-4-yl]-N-phenyl-propionamide], the inhibitory constant (Ki) is under 10 µM.
Then `COc1ccc(C(=O)N2c3ccccc3[C@@H](N(C(C)=O)c3ccc(Cl)cc3)C[C@H]2C)cc1` [Compound B-34, (2R,4S)-cis-N-(4-Chloro-phenyl)-N-[1-(4-methoxy-benzoyl)-2-methyl-1,2,3,4-tetrahydro-quinolin-4-yl]-acetamide], with under 10 µM; and `COc1ccc(C(=O)N2c3ccccc3[C@H](N(C(C)=O)c3ccc(C(C)(C)C(=O)O)cc3)C[C@@H]2C)cc1` [Compound D-1, (2S,4R)-2-(4-{Acetyl-[1-(4-methoxy-benzoyl)-2-methyl-1,2,3,4-tetrahydro-quinolin-4-yl]-amino}-phenyl)-2-methyl-propionic acid], with under 10 µM.
Compound `CCOC(=O)C(C)(C)Oc1ccc2c(c1)[C@H](N(C(=O)CC)c1ccc(Cl)cc1)C[C@H](C)N2C(=O)c1ccc(F)cc1` (racemic) [Compound B-64, (±)-Cis-2-[4-[(4-chloro-phenyl)-propionyl-amino]-1-(4-fluoro-benzoyl)-2-methyl-1,2,3,4-tetrahydro-quinolin-6-yloxy]-2-methyl-propionic acid ethyl ester] showed a Ki of under 10 µM.
The compound `COc1cccc(C(=O)N2c3ccccc3[C@@H](N(C(C)=O)c3ccc(Cl)cc3)C[C@H]2C)c1` [Compound B-9, (2R,4S)-cis-N-(4-chloro-phenyl)-N-[1-(3-methoxy-benzoyl)-2-methyl-1,2,3,4-tetrahydro-quinolin-4-yl]-acetamide] gave a Ki of under 10 µM.
On to `CCC(=O)N(c1ccc(Cl)cc1)[C@@H]1C[C@H](COC)N(C(=O)c2ccc(F)cc2)c2ccccc21` (racemic) [Compound B-107, (±)-Cis-N-(4-chloro-phenyl)-N-[1-(4-fluoro-benzoyl)-2-methoxymethyl-1,2,3,4-tetrahydro-quinolin-4-yl]-propionamide], for which the inhibitory constant (Ki) is under 10 µM.
`CCOC(=O)[C@H]1C[C@@H](N(C(C)=O)c2ccccc2)c2ccccc2N1C(=O)c1ccc(F)cc1` (racemic) [Compound B-101, (±)-Cis-4-(acetyl-phenyl-amino)-1-(4-fluoro-benzoyl)-1,2,3,4-tetrahydro-quinoline-2-carboxylic acid ethyl ester] gave a Ki of under 10 µM.
As to `COc1cccc(C(=O)N2c3ccccc3[C@H](N(C(C)=O)C3CCCCC3)C[C@@H]2C)c1` (racemic) [Compound B-53, (±)-Cis-N-cyclohexyl-N-[1-(3-methoxy-benzoyl)-2-methyl-1,2,3,4-tetrahydro-quinolin-4-yl]-acetamide], the Ki was under 60 µM.
Turning to `CC(=O)N(c1ccccc1)[C@@H]1C[C@H](C)N(C(=O)c2ccccc2C)c2ccccc21` (racemic) [Compound A-153, (±)-Cis-N-[2-methyl-1-(2-methyl-benzoyl)-1,2,3,4-tetrahydro-quinolin-4-yl]-N-phenyl-acetamide], the Ki was under 10 µM.
With `COc1cccc(C(=O)N2CCC(N(C(C)=O)c3ccccc3)c3ccccc32)c1` (stereo not drawn) [Compound F-3, N-[1-(3-Methoxy-benzoyl)-1,2,3,4-tetrahydro-quinolin-4-yl]-N-phenyl-acetamide] the figure was under 10 µM; with `CC(=O)N(c1ccccc1)[C@@H]1C[C@H](C(=O)O)N(C(=O)c2ccc(F)cc2)c2ccccc21` (racemic) [Compound B-102, (±)-Cis-4-(acetyl-phenyl-amino)-1-(4-fluoro-benzoyl)-1,2,3,4-tetrahydro-quinoline-2-carboxylic acid], under 10 µM.
Compound `Cc1ccc(C(=O)N2c3ccccc3[C@@H](N(C(=O)C(C)C)c3ccc(Cl)cc3)C[C@H]2C)s1` [Compound B-11, (2R,4S)-cis-N-(4-Chloro-phenyl)-N-[2-methyl-1-(5-methyl-thiophene-2-carbonyl)-1,2,3,4-tetrahydro-quinolin-4-yl]-isobutyramide] had a Ki of under 10 µM.
With `CCC(=O)N(c1ccc(Cl)cc1)C1CC(C)N(C(=O)c2ccc(F)cc2)c2ccc(/C=C/C(=O)O)cc21` (racemic) [Compound B-73, (±)-Cis-3-[4-[(4-chloro-phenyl)-propionyl-amino]-1-(4-fluoro-benzoyl)-2-methyl-1,2,3,4-tetrahydro-quinolin-6-yl]-acrylic acid], the inhibition constant Ki was under 10 µM.
`CCC(=O)N(c1ccc(Cl)cc1)[C@@H]1C[C@H](CN(CC)CC)N(C(=O)c2ccc(F)cc2)c2ccccc21` (racemic) [Compound B-106, (±)-Cis-N-(4-chloro-phenyl)-N-[2-diethylaminomethyl-1-(4-fluoro-benzoyl)-1,2,3,4-tetrahydro-quinolin-4-yl]-propionamide] gave a Ki of under 10 µM.
Then `CCC(=O)N(c1ccccc1)[C@@H]1C[C@H](C)N(C(=O)c2ccnc(C)c2)c2ccccc21` (racemic) [Compound A-131, (±)-Cis-N-[2-methyl-1-(2-methyl-pyridine-4-carbonyl)-1,2,3,4-tetrahydro-quinolin-4-yl]-N-phenyl-propionamide], with under 10 µM.
The compound `CC(=O)N(c1ccc(Cl)cc1)[C@H]1C[C@@H](C)N(C(=O)c2ccc(F)cc2)c2ccccc21` [Compound B-26, (2R,4S)-cis-N-(4-chloro-phenyl)-N-[1-(4-fluoro-benzoyl)-2-methyl-1,2,3,4-tetrahydro-quinolin-4-yl]-acetamide] displayed a Ki of under 10 µM.
Then `CCN(CC)c1ccc(N(C(C)=O)[C@@H]2C[C@H](C)N(C(=O)c3ccc(N(C)C)cc3)c3cc(N(CC)CC)ccc32)cc1` (racemic) [Compound B-84, (±)-Cis-N-[7-diethylamino-1-(4-dimethylamino-benzoyl)-2-methyl-1,2,3,4-tetrahydro-quinolin-4-yl]-N-(4-diethylamino-phenyl)-acetamide], with under 10 µM; and `COc1cccc(C(=O)N2c3ccccc3[C@@H](N(C(C)=O)c3ccccc3)C[C@@H]2C)c1` (racemic) [Compound A-124, (±)-Trans-N-[1-(3-methoxy-benzoyl)-2-methyl-1,2,3,4-tetrahydro-quinolin-4-yl]-N-phenyl-acetamide], with under 60 µM; and `CC(=O)N(c1ccccc1)[C@@H]1C[C@H](C)N(C(=O)c2c(C)noc2C)c2ccccc21` (racemic) [Compound A-154, (±)-Cis-N-[1-(3,5-dimethyl-isoxazole-4-carbonyl)-2-methyl-1,2,3,4-tetrahydro-quinolin-4-yl]-N-phenyl-acetamide], with under 60 µM.
`CCC(=O)OC[C@H]1C[C@@H](N(C(=O)CC)c2ccc(Cl)cc2)c2ccccc2N1C(=O)c1ccc(F)cc1` (racemic) [Compound B-104, (±)-Cis-propionic acid 4-[(4-chloro-phenyl)-propionyl-amino]-1-(4-fluoro-benzoyl)-1,2,3,4-tetrahydro-quinolin-2-ylmethyl ester] had an inhibitory constant (Ki) of under 10 µM.
In the case of `COc1ccc(C(=O)N2c3ccccc3[C@H](N(C(C)=O)c3ccc(CCC(=O)O)cc3)C[C@@H]2C)cc1` [Compound D-6, (2S,4R)-3-(4-{Acetyl-[1-(4-methoxy-benzoyl)-2-methyl-1,2,3,4-tetrahydro-quinolin-4-yl]-amino}-phenyl)-propionic acid], the inhibitory constant (Ki) is under 10 µM.
On to `CCC(=O)N(c1ccc(Cl)cc1)[C@@H]1C[C@H](C)N(C(=O)c2ccc(F)cc2)c2cccc(OC)c21` (racemic) [Compound B-86, (±)-Cis-N-(4-chloro-phenyl)-N-[1-(4-fluoro-benzoyl)-5-methoxy-2-methyl-1,2,3,4-tetrahydro-quinolin-4-yl]-propionamide], for which the Ki was under 10 µM.
Consider `CCOCCOc1ccc2c(c1)C(N(C(=O)CC)c1ccc(Cl)cc1)CC(C)N2C(=O)c1ccc(F)cc1` (stereo not drawn) [Compound B-68], for which the inhibitory constant (Ki) is under 10 µM.
`COc1cccc(C(=O)N2c3ccccc3[C@H](N(C(=O)c3ccc(Cl)cc3)c3ccccc3)C[C@@H]2C)c1` (racemic) [Compound A-3, (±)-Cis-4-chloro-N-[1-(3-methoxy-benzoyl)-2-methyl-1,2,3,4-tetrahydro-quinolin-4-yl]-N-phenyl-benzamide] yielded an inhibition constant Ki of under 10 µM.
